Measured values published in PubChem BioAssay (NCI).
“And” between values parts separate entries of the source, which are not always exact repeats. Identical values can stand only once.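 These data come from cells grown in 96-well plates and exposed to compound for 48 hours at five concentrations. GI50 marks 50% less growth. Definition used: TGI = concentration required for complete inhibition of growth.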

Assays:
Experiment in all cases: NCI-60 cell line screen, 48 h
[1] = system: A498 renal
[2] = system: SNB-19 CNS
[3] = system: SF-295 CNS
[4] = system: SK-MEL-2 melanoma
[5] = system: A549 NSCLC
[6] = system: SNB-75 CNS
[7] = system: MDA-MB-231 breast
[8] = system: UACC-257 melanoma
[9] = system: NCI/ADR-RES ovarian
[10] = system: HS 578T breast
[11] = system: HOP-92 NSCLC

## Cc1cc(C)c(-c2no/c(=N\S(=O)(=O)c3ccc(Cl)cc3)o2)c(C)c1
[1]
  TGI: > 100 µM
[2]
  TGI: > 100 µM
[3]
  TGI: > 100 µM
[4]
  TGI: > 100 µM
[5]
  TGI: > 100 µM
[6]
  TGI: > 100 µM
[7]
  TGI: > 100 µM
[8]
  TGI: > 100 µM
[9]
  TGI: > 100 µM
[10]
  TGI: > 100 µM

## COc1cc(C2c3cc4c(cc3OC(NN)C2C)OCO4)cc(OC)c1O (stereo not drawn)
[2]
  TGI: > 100 µM
[3]
  TGI: 14.7 µM
[4]
  TGI: 13.1 µM
[5]
  TGI: 53.5 µM
[6]
  TGI: > 100 µM
[7]
  TGI: 84.9 µM
[8]
  TGI: 93 µM
[9]
  TGI: 94 µM
[11]
  TGI: > 100 µM

## O=C(NCCC1CNc2ccccc21)OCc1ccccc1 (stereo not drawn)
[1]
  TGI: > 100 µM
[2]
  TGI: > 100 µM
[3]
  TGI: > 100 µM
[4]
  TGI: > 100 µM
[5]
  TGI: > 100 µM
[7]
  TGI: > 100 µM
[8]
  TGI: > 100 µM
[9]
  TGI: > 100 µM
[11]
  TGI: > 100 µM
[10]
  TGI: > 100 µM

## CC1(C)O[C@@H]2[C@@H](COC(C)(C)O[C@H]2C2SCCCS2)O1
[1]
  TGI: > 100 µM
[2]
  TGI: > 100 µM
[3]
  TGI: > 100 µM
[4]
  TGI: > 100 µM
[5]
  TGI: > 100 µM
[7]
  TGI: > 100 µM
[9]
  TGI: > 100 µM
[11]
  TGI: > 100 µM

## Cc1cc(N(CCC#N)CCC#N)ccc1/C(N=Nc1ccccc1)=N\NC(=O)c1cc(Cl)ccc1O
[1]
  TGI: > 100 µM
[2]
  TGI: > 100 µM
[3]
  TGI: > 100 µM
[4]
  TGI: > 100 µM
[5]
  TGI: > 100 µM
[6]
  TGI: > 100 µM
[7]
  TGI: 83 µM
[8]
  TGI: 40.5 µM
[9]
  TGI: 72.7 µM
[10]
  TGI: 80.2 µM

## CC(=O)NC1C(OCC(=O)NCCNc2ccc([N+](=O)[O-])c3[nH]c4ccccc4c(=O)c23)C(O)C(CO)OC1(C)OCc1ccccc1 (stereo not drawn)
[1]
  TGI: > 100 µM
[2]
  TGI: > 100 µM
[3]
  TGI: > 100 µM
[4]
  TGI: > 100 µM
[5]
  TGI: > 100 µM
[6]
  TGI: > 100 µM
[7]
  TGI: > 100 µM
[8]
  TGI: > 100 µM
[9]
  TGI: > 100 µM
[10]
  TGI: > 100 µM

## COC(CN(C)C(=S)Nc1cccc2ccccc12)OC
[1]
  TGI: > 10 µM
[2]
  TGI: > 10 µM
[3]
  TGI: > 10 µM
[4]
  TGI: > 10 µM
[5]
  TGI: > 10 µM
[6]
  TGI: > 10 µM
[7]
  TGI: > 10 µM
[8]
  TGI: > 10 µM
[9]
  TGI: > 10 µM
[10]
  TGI: > 10 µM

## Cn1c2ccccc2c(=O)c2c(O)cc3c(c21)C1OCC(C)(O)C1O3 (stereo not drawn)
[2]
  TGI: > 100 µM
[4]
  TGI: > 100 µM
[5]
  TGI: > 100 µM
[6]
  TGI: 56 µM
[7]
  TGI: > 100 µM
[8]
  TGI: > 100 µM
[9]
  TGI: > 100 µM
[10]
  TGI: 37.5 µM

## COC(=O)/C=C/c1ccc(OP(=O)(O)O)c(OC)c1
[1]
  TGI: > 100 µM
[2]
  TGI: > 100 µM
[3]
  TGI: > 100 µM
[4]
  TGI: > 100 µM
[5]
  TGI: > 100 µM
[6]
  TGI: > 100 µM
[7]
  TGI: > 100 µM
[8]
  TGI: > 100 µM
[11]
  TGI: > 100 µM
[10]
  TGI: > 100 µM

## NC1=NC2(COC(c3ccccc3)(c3ccccc3)c3ccccc3)OC(COC(c3ccccc3)(c3ccccc3)c3ccccc3)C(O)C2O1 (stereo not drawn)
[1]
  TGI: > 100 µM
[2]
  TGI: > 100 µM
[3]
  TGI: > 100 µM
[4]
  TGI: 85.5 µM
[5]
  TGI: > 100 µM
[6]
  TGI: 4.47 µM
[7]
  TGI: > 100 µM
[8]
  TGI: > 100 µM
[9]
  TGI: > 100 µM
[11]
  TGI: > 100 µM

## COc1cc([C@@H]2c3cc4c(cc3[C@@H](Nc3ccc(NC(=O)c5cc([N+](=O)[O-])cn5C)cc3)[C@H]3COC(=O)[C@H]23)OCO4)cc(OC)c1O
[1]
  GI50: 0.0233 µM and 0.0897 µM
  TGI: 0.402 µM and 0.476 µM
[2]
  TGI: > 44.5 µM
[3]
  GI50: 0.0513 µM and 0.0793 µM
[5]
  TGI: 1.31 µM and 0.309 µM
[6]
  TGI: > 63.5 µM
[7]
  GI50: 1.34 µM and 4.74 µM
  TGI: 17.3 µM and 14.6 µM
[8]
  TGI: > 65.5 µM
[9]
  GI50: 2.17 µM
  TGI: > 31.6 µM
[11]
  GI50: 0.0549 µM
  TGI: 39.9 µM and 19.7 µM
[10]
  GI50: 2.11 µM and 0.756 µM
  TGI: > 100 µM

## COc1ccc(CCCCNCc2cccc(CNCCCCc3ccc(OC)cc3)c2)cc1
[2]
  TGI: 3.29 µM
[3]
  TGI: 3.77 µM
[4]
  TGI: 3.53 µM
[5]
  TGI: 4.86 µM
[6]
  TGI: 3.38 µM
[7]
  TGI: 3.6 µM
[8]
  TGI: > 19.7 µM
[9]
  TGI: 3.19 µM
[11]
  TGI: 2.91 µM
[10]
  TGI: 3.27 µM

## COC(=O)[C@@]12OC[C@]34C([C@@H](O)C1O)[C@@]1(C)CC(=O)C(OC(=O)CC(C)C(F)(F)F)=C(C)C1C[C@H]3OC(=O)[C@H](O)[C@H]42 (stereo partly drawn)
[1]
  TGI: 0.625 µM
[2]
  TGI: 22.4 µM
[3]
  TGI: 42.5 µM
[4]
  TGI: 15.5 µM
[5]
  TGI: > 62.5 µM
[6]
  TGI: 31.4 µM
[8]
  TGI: 35.3 µM
[11]
  TGI: 23.1 µM

## NNc1nnc(CCCCCCCCc2nnc(NN)n2N)n1N
[1]
  TGI: > 100 µM
[2]
  TGI: > 100 µM
[3]
  TGI: > 100 µM
[4]
  TGI: > 100 µM
[5]
  TGI: > 100 µM
[6]
  TGI: > 100 µM
[7]
  TGI: > 100 µM
[8]
  TGI: > 100 µM
[9]
  TGI: > 100 µM
[11]
  TGI: > 100 µM

## O=C1c2ccccc2N2OC3(N4CCOCC4)CCCC3C12c1ccccc1 (stereo not drawn)
[1]
  TGI: > 100 µM
[2]
  TGI: > 100 µM
[3]
  TGI: > 100 µM
[5]
  TGI: > 100 µM
[6]
  TGI: > 100 µM
[8]
  TGI: > 100 µM
[11]
  TGI: > 100 µM

## C1CSCCSCCCS[C@@H]2CCCCC2SC1 (stereo partly drawn)
[1]
  TGI: > 100 µM
[2]
  TGI: > 100 µM
[3]
  TGI: > 100 µM
[4]
  TGI: > 100 µM
[5]
  TGI: > 100 µM
[6]
  TGI: > 100 µM
[8]
  TGI: > 100 µM
[11]
  TGI: > 100 µM

## COC1(OC)c2occc2C(=N)c2ccc(=O)oc21
[1]
  TGI: > 100 µM
[2]
  TGI: > 100 µM
[3]
  TGI: > 100 µM
[4]
  TGI: > 100 µM
[5]
  TGI: > 100 µM
[7]
  TGI: > 100 µM
[8]
  TGI: > 100 µM
[11]
  TGI: > 100 µM
[10]
  TGI: > 100 µM

## Clc1ccc(C=Nc2ccc(Oc3ccc(Cl)cc3)c(Cl)c2)cc1
[2]
  TGI: 56.2 µM
[3]
  TGI: 37.7 µM
[4]
  TGI: 54.2 µM
[5]
  TGI: 59.1 µM
[6]
  TGI: 52.6 µM
[7]
  TGI: 47.9 µM
[8]
  TGI: 77.5 µM
[9]
  TGI: 58.5 µM
[11]
  TGI: 41 µM
[10]
  TGI: 51.4 µM

## Cc1[nH]n(-c2nc3c(c(=O)[nH]2)CCCC3)c(=O)c1CCO
[1]
  TGI: > 100 µM
[2]
  TGI: > 100 µM
[3]
  TGI: > 100 µM
[4]
  TGI: > 100 µM
[5]
  TGI: > 100 µM
[7]
  TGI: > 100 µM
[8]
  TGI: > 100 µM
[9]
  TGI: > 100 µM
[10]
  TGI: > 100 µM

## CC(C)(CN1CCCCC1)C(=O)/C=C/c1ccc(Br)cc1
[1]
  TGI: 5.8 µM
[2]
  TGI: 4.75 µM
[3]
  TGI: 17.4 µM
[4]
  TGI: 9.04 µM
[5]
  TGI: 7.9 µM
[6]
  TGI: 14.9 µM
[8]
  TGI: 20.3 µM
[11]
  TGI: 4.1 µM

## COC(=O)/C=C(\C(=O)OC)c1cc(C)c2cc(C(C)C)ccc(C)c1-2
[1]
  TGI: > 100 µM
[2]
  TGI: > 100 µM
[3]
  TGI: > 100 µM
[4]
  TGI: > 100 µM
[5]
  TGI: > 100 µM
[7]
  TGI: > 100 µM
[9]
  TGI: > 100 µM
[11]
  TGI: 77.9 µM
[10]
  TGI: > 100 µM
